Measured values as given in US20120070508A1, “Methods, Compositions, and Devices for Managing Chlorine Dioxide Release” (DHARMA IP, LLC, priority 2010, published 2012).

Assay: Enhanced solubility of beta-cyclodextrin in water containing ClO2 (slurry test)
Settings: 100 g slurry, 5% (w/w) in 8000 ppm ClO2 vs ultrapure water, 200 rpm, 3 days

weight of undissolved dried beta-cyclodextrin, less than control slurry: 0.32 g
SMILES: OC[C@H]1O[C@@H]2O[C@H]3[C@H](O)[C@@H](O)[C@@H](O[C@H]4[C@H](O)[C@@H](O)[C@@H](O[C@H]5[C@H](O)[C@@H](O)[C@@H](O[C@H]6[C@H](O)[C@@H](O)[C@@H](O[C@H]7[C@H](O)[C@@H](O)[C@@H](O[C@H]8[C@H](O)[C@@H](O)[C@@H](O[C@H]1[C@H](O)[C@H]2O)O[C@@H]8CO)O[C@@H]7CO)O[C@@H]6CO)O[C@@H]5CO)O[C@@H]4CO)O[C@@H]3CO [beta-cyclodextrin]
